# From patent publication US20070270350A1, “Methods and Compositions for the Prevention and Treatment of Inflammatory Diseases or Conditions” (MUSC FOUNDATION FOR RESEARCH DEVELOPMENT, priority 2003, published 2007)
# What was measured:
# [1] = cited from earlier work
# iNOS [2] = test: LPS/IFN-induced NO production and iNOS expression in C6 glioma cells; assay type: cell-based, rat; conditions: exogenous glycosphingolipid with D-PDMP
# Procedure: C6 rat glioma cells obtained from ATCC were maintained in Dulbecco's modified Eagle's medium (DMEM) (GIBCO, CA) containing 10% fetal bovine serum (FBS) (GIBCO) and 10 ? g/ml gentamicin. All the cultured cells were maintained at 37° C. in 5% CO2/95% air. At 80% confluency, the cells were incubated with serum free DMEM medium for 24 h prior to the incubation with LPS/IFN ? and other chemicals. Assay for NO production. Cells were cultured in 12-well plastic tissue culture plates. After the appropriate treatment, production of NO was determined by an assay of the culture supernatant for nitrite (Green et al., 1982). Briefly, 100 μl of culture supernatant was allowed to react with 100 μl of Griess reagent. The optical density of the assay samples was measured spectrophotometrically at 570 nm. Nitrite concentrations were calculated from a standard curve derived from the reaction of NaNO2 in fresh media. Western Blot Analysis. […] The protein concentration of samples was determined with the detergent compatible protein assay reagent (Bio-Rad Laboratories, CA) using bovine serum albumin (BSA) as the standard. Sample was boiled for 3 min with 0.1 volumes of 10% O-mercaptoethanol and 0.5% bromophenol blue mix. Fifty μg of total cellular protein was resolved by electrophoresis in 8 or 12% polyacrylamide gels, electro-transferred to polyvinylidene difluoride (PVDF) filter and blocked with Tween 20 containing Tris-buffered saline [TBST; 10 mM Trizma base (pH 7.4), 1% Tween 20, and 150 mM NaCl] with 5% skim milk. After incubation with antiserum against iNOS (BD PharMingen, CA), or hRas (Upstate Biotechnology, CA), or phospho-specific MAPK (p42/44) (Signal Transduction), in PVDF buffer for 2 h at room temperature, the filters were washed 3 times with TBST buffer and then incubated with horseradish peroxidase conjugated anti-rabbit or mouse IgG for 1 h. The membranes were autoradiographed by using ECL-plus (Amersham Pharmacia Biotech) after washing with TBST buffer. RT-PCR amplification. […] PCR amplification was conducted in 25 ? l of reaction mixture with 1.0 ? l of cDNA, […] and under the manufacturer's Taq polymerase conditions (Takara, […] Shuzo Co. Ltd, Japan). The sequence of primers used for PCR amplification are as follows; iNOS, (Forward-[NT], Reverse-[NT]), GalT-2 (Forward-[NT], Reverse-[NT]), GAPDH (Forward-[NT], Reverse-[NT]).
# ERK1/2 = ERK1/2 phosphorylation by immunoblot after LPS/IFN; assay type: cell-based, rat; conditions: exogenous LacCer with D-PDMP
# Procedure: (§1) Western Blot Analysis. For iNOS protein, the cells were washed with cold Tris buffered saline (TBS; 20 mM Trizma base, and 137 mM NaCl, pH 7.5), lysed in 1×SDS sample loading buffer (62.5 mM Trizma base, 2% w/v SDS, 10% glycerol), following sonication and centrifugation at 1,5000×g for 5 min, the supernatant was used for the iNOS western immunoblot assay. The protein concentration of samples was determined with the detergent compatible protein assay reagent (Bio-Rad Laboratories, CA) using bovine serum albumin (BSA) as the standard. Sample was boiled for 3 min with 0.1 volumes of 10% O-mercaptoethanol and 0.5% bromophenol blue mix. Fifty μg of total cellular protein was resolved by electrophoresis in 8 or 12% polyacrylamide gels, electro-transferred to polyvinylidene difluoride (PVDF) filter and blocked with Tween 20 containing Tris-buffered saline [TBST; 10 mM Trizma base (pH 7.4), 1% Tween 20, and 150 mM NaCl] with 5% skim milk. After incubation with antiserum against iNOS (BD PharMingen, CA), or hRas (Upstate Biotechnology, CA), or phospho-specific MAPK (p42/44) (Signal Transduction), in PVDF buffer for 2 h at room temperature, the filters were washed 3 times with TBST buffer and then incubated with horseradish peroxidase conjugated anti-rabbit or mouse IgG for 1 h. The membranes were autoradiographed by using ECL-plus (Amersham Pharmacia Biotech) after washing with TBST buffer.
# small GTPase Ras = test: Quantification of Ras activation (GST-Raf-1 Ras binding domain); assay type: cell-based, rat; conditions: exogenous LacCer with D-PDMP
# Procedure: Quantification of Ras Activation. After stimulation, primary astrocytes in 6 well plates were washed with PBS and lysed in membrane lysis buffer (MLB; 0.5 ml of 25 mM HEPES, pH7.5, 150 mM NaCl, 1% Igepal CA-630, 0.25% sodium deoxycholate, 10% glycerol, 10 mM MgCl2, 1 mM EDTA, 25 mM NaF, 1 mM of sodium orthovanadate, and EDTA free Complete™ protease inhibitor cocktail). After centrifugation (5,000×g) at 4° C. for 5 min, supernatant was used for Ras activation assay. One hundred μg of supernatant was used for binding with agarose conjugated Ras-binding domain (RBD) of Raf-1 which was expressed in BL21 (Invitrogen) Escherichia coli strain transformed by pGEX-2T-GST-RBD in the presence of 0.1 mM of IPTG as described previously (Herrmann et al., 1995). The binding reaction was performed at 4° C. for 30 min in MLB. Following washing with MLB three times, Ras-RBD complex were denatured by adding of 2×SDS sample buffer. Ras protein was identified by western immunoblot analysis with Ras antibodies from Upstate Biotechnology.
# iNOS [3] = test: LPS/IFN-induced NO production and iNOS gene expression in primary astrocytes; assay type: cell-based, rat
# NF-κB = NF-κB reporter, gel shift and IκB phosphorylation after LPS/IFN; assay type: cell-based, rat
# Procedure: as §1
# Nuclear Extraction and Electrophoretic mobility shift assay. Nuclear extracts from cells (1×10^7 cells) were prepared using previously published method (Dignam et al., 1983) with slight modification. Cells were harvested, washed twice with ice-cold TBS, and lysed in 400 μl of buffer A containing, 10 mM KCl, 2 mM MgCl2, 0.5 mM dithiothreitol, protease inhibitor cocktail (Sigma), and 0.1% Nonidet P40 in 10 mM HEPES, pH 7.9 for 10 min on ice. Following centrifugation at 5,000×g for 10 min, the pelleted nuclei were washed with buffer A without Nonidet P40, and re-suspended in 40 μl of buffer B containing 25% (v/v) glycerol, 0.42 M NaCl, 1.5 mM MgCl2, 0.2 mM EDTA, 0.5 mM dithiothreitol, and Complete™ protease inhibitor cocktail (Roche) in 20 mM HEPES, pH7.9 for 30 min on ice. The lysates were centrifuged at 15,000×g for 15 min and the supernatants containing the nuclear proteins were stored at −70° C. until use. Ten μg of nuclear proteins was used for the electrophoretic mobility shift assay for detection of AP-1, NFκB, and C/EBP DNA binding activities. DNA-protein binding reactions were carried out at room temperature for 20 min in 10 mM Trizma base (pH 7.9), 50 mM NaCl, 5 mM MgCl2, 1 mM EDTA, 1 mM dithiothreitol, 1 μg poly (dl-dC), 5% (v/v) glycerol, and approximately 0.3 pmol of NFκB (Santa Cruz Biotech) labeled with DIG-ddUTP using terminal deoxynucleotidyl transferase (Roche). Protein-DNA complexes were resolved from protein-free DNA in 5% polyacrylamide gels at room temperature in 50 mM Tris, pH 8.3, 0.38 M glycine, and 2 mM EDTA, and electroblotted onto positively charged nylon membranes. The chemiluminescence detection method for DIG-labeled probes is identical to the method described for the non-isotopic northern blot analysis in the preceding.
# Transient Transfections and Reporter Gene Assay. 3×10^5 cells/well were cultured in 6-well plates for one day before the transfection. Transfection was performed with plasmid concentration constant (2.5 μg/transfection) and 8 μl of Fugene transfection reagent (Roche Molecular Biochemicals). One day after transfection, the cells were placed in serum free media for overnight. Following appropriate treatment, the cells were washed with phosphate buffered saline (PBS), scrapped, and then resuspended with 100 μl of lysis buffer (40 mM of Tricine pH 7.8, 50 mM of NaCl, 2 mM of EDTA, 1 mM of MgSO4, 5 mM of dithiothreitol, and 1% of Triton X-100). After incubation in room temperature for 15 min with occasional vortexing, the samples were centrifuged. […]
Molecule,solubility in water [1],effect on D-PDMP inhibition of NO production (iNOS [2]),effect on D-PDMP inhibition of iNOS mRNA and protein expression (iNOS [2]),effect on D-PDMP inhibition of ERK 1/2 phosphorylation (ERK1/2),effect on D-PDMP reduction of Ras activation (small GTPase Ras),effect on D-PDMP mediated inhibition of iNOS gene expression (iNOS [3]; LacCer 5 and 10 μM with D-PDMP 50 μM before LPS/IFN),effect on PD98059 inhibition of iNOS gene expression (iNOS [3]; exogenous LacCer with PD98059),"effect on D-PDMP mediated inhibition of NO production (iNOS [3]; glycosphingolipid 5 and 10 μM added with D-PDMP 50 μM, 0.5 hr before LPS/IFN, 24 hrs)",levels of phosphorylated IκB (NF-κB; LacCer added to D-PDMP),effect on D-PDMP inhibition of NF-κB DNA binding activity (NF-κB; exogenous LacCer with D-PDMP),effect on D-PDMP inhibition of κB-repeat luciferase activity (NF-κB; exogenous LacCer with D-PDMP)
"CCCCN1CC(O)C(O)C(O)C1CO [Miglustat, 1,5-(butylimino)-1,5-dideoxy-D-glucitol]",soluble,,,,,,,,,,
lactosylceramide [LacCer],,reversed,reversed,reversed,fully reversed,blunted,no effect,blunted,increased,reversed,effectively bypassed
